Laboratory results from patent US8178668B2, “2-aminopyridine kinase inhibitors” (OSI Pharmaceuticals, LLC, priority 2008, dated 2012).
pIC50: −log10 of the molar value. Structures can show the parent of a compound that is named as a salt.

What was measured:
RON (human) = RON (human) (Homo sapiens, UniProt Q04912); assay: RON kinase AlphaScreen assay (Km of ATP); format: biochemical; conditions: ATP at Km; at least duplicate experiments
Description: (§1) Person skilled in the art will appreciate that a variety of assay formats may be used to determine the activity of the compounds of this invention. For example, AlphaScreen (Amplified Luminescent Proximity Homogeneous Assay) technology was used with the kinases described below. Assay ATP concentrations for individual kinases are included in the text.
RON (human)—Km of ATP: RON assay is performed in a 384 well assay containing 200 ng/μL biotinylated poly(Glu,Tyr), 0.334 mM vanadate, desired concentration of ATP optimized for the enzyme in assay buffer (50 mM HEPES (pH=7.4), 12.5 mM MgCl2 and 1% glycerol). Desired compound is added in a final concentration of 1% DMSO with control being vehicle of DMSO alone. RON is diluted to the optimized (on a lot-by-lot basis) concentration in an enzyme diluent buffer (50 mM HEPES pH=7.4, 12.5 mM MgCl2 and 1% glycerol, 0.03% Brij35, 0.3 mM EGTA, lmM DTT, and 0.003% BSA). Enzyme is added to initiate the reaction and incubated for 30 min at RT. In subdued light, appropriate amount of PT66 donor and acceptor beads (diluted 1:260 from manufacturer's provision in a 25 mM Tris HCl (pH=7.5), 200 mM NaCl, 100 mM EDTA, 0.3% BSA buffer) are added to the wells. The plates, incubated for 1 h, are read on an AlphaQuest plate reader.

MET (human) = MET (human) (Homo sapiens, UniProt P08581); assay: MET kinase AlphaScreen assay (Km of ATP); format: biochemical; conditions: ATP at Km; at least duplicate experiments
MET (human), sequence (P08581 25-1390): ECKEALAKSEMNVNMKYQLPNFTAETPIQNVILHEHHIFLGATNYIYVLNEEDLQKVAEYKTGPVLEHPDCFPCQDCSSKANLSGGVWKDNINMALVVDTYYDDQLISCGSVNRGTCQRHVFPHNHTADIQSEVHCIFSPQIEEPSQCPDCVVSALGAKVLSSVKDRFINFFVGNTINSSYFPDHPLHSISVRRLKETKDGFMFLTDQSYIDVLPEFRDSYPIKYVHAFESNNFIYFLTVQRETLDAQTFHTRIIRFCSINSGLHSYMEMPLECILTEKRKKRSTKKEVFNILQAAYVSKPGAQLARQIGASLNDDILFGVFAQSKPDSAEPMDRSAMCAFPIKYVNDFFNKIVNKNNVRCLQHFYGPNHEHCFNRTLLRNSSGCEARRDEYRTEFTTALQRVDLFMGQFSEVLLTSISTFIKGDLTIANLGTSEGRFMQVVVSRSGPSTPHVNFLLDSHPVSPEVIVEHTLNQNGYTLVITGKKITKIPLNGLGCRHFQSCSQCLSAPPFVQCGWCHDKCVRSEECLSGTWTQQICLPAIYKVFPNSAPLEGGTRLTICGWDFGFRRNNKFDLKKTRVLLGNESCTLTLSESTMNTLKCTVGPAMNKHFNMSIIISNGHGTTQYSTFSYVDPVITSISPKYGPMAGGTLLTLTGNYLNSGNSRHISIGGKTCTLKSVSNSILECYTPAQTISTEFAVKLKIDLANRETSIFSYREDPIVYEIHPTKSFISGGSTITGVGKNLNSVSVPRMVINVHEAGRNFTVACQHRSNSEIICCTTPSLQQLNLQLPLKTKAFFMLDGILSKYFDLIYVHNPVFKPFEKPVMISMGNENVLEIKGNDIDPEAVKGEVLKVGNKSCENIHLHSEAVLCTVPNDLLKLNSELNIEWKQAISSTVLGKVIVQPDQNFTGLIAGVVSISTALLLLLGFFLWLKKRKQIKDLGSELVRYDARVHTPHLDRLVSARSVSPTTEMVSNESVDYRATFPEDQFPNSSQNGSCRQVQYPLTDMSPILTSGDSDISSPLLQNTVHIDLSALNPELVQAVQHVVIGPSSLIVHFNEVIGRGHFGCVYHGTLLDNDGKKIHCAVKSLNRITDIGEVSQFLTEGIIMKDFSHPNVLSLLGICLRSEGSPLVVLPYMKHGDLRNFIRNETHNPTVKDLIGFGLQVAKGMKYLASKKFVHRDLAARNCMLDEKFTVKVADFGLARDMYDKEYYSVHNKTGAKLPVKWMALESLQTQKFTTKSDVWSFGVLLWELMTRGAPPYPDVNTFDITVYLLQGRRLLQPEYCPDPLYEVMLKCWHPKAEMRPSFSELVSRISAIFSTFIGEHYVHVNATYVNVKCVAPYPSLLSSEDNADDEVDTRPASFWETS
Description: as §1
MET (human)—Km of ATP: MET assay is performed in a 384 well assay containing 200 ng/μL biotinylated poly(Glu,Tyr), 0.334 mM vanadate, desired concentration of ATP optimized for the enzyme in assay buffer (50 mM HEPES (pH=7.4), 5 mM MgCl2, 5 mM MnCl2, and 1% glycerol). Desired compound is added in a final concentration of 1% DMSO with control being vehicle of DMSO alone. MET is diluted to the optimized concentration (optimized on a lot-by-lot basis) in an enzyme diluent buffer (50 mM Tris pH=7.4, 1% glycerol, 0.03% Brij35, 0.24 mM EGTA, 1 mM DTT, and 0.003% BSA). Enzyme is added to initiate the reaction and incubated for 60 min at RT. In subdued light, appropriate amount of PT66 donor and acceptor beads (diluted 1:260 from manufacturer's provision in a 25 mM Tris HCl (pH=7.5), 400 mM NaCl, 100 mM EDTA, 0.3% BSA buffer) are added to the wells. The plates, incubated for 1 h, are read on an AlphaQuest plate reader

RON (human), sequence (Q04912 25-1400): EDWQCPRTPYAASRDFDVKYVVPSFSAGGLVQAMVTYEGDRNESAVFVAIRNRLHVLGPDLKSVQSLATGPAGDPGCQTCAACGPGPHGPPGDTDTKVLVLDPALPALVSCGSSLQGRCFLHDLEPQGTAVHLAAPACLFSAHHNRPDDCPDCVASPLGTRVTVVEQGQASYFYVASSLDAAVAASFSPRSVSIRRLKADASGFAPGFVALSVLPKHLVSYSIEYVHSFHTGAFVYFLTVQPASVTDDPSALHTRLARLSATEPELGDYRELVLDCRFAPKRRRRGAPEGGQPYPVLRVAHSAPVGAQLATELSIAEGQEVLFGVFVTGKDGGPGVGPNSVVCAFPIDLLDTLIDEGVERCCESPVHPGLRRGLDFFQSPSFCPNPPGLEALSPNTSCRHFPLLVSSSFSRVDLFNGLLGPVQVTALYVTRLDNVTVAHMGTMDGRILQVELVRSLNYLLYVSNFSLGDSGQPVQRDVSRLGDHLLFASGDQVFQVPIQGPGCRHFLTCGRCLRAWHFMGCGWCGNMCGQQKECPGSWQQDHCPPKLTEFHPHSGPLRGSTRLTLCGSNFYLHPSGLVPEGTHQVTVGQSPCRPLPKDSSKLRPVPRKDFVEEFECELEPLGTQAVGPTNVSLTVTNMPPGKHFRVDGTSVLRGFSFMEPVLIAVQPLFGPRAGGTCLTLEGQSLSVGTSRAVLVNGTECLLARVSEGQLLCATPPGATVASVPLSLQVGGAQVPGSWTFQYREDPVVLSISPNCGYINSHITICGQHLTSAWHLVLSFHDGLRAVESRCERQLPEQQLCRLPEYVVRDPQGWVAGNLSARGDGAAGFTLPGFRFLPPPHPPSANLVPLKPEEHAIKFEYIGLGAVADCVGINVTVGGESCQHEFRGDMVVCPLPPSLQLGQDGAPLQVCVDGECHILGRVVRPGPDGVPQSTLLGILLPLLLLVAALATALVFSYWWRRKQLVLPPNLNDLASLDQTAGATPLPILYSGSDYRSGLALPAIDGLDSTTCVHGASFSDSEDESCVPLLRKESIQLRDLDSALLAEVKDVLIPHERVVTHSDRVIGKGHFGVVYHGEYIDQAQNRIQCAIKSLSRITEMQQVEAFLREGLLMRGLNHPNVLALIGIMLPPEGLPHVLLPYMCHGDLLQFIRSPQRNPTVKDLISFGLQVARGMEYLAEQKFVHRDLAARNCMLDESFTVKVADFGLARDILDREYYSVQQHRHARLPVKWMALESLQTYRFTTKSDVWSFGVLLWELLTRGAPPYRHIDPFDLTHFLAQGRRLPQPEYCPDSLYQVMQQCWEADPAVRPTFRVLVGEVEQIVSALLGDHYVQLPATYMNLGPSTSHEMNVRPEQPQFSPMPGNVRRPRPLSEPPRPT

Compound	pIC50 (RON (human))	pIC50 (MET (human))
Nc1ncc(-c2cnn(C3CCNCC3)c2)cc1-c1cc2c(-c3cccnc3)ccc(F)c2cn1 [Example 54, 3-(8-Fluoro-5-pyridin-3-ylisoquinolin-3-yl)-5-(1-piperidin-4-yl-1H-pyrazol-4-yl)-pyridin-2-ylamine trihydrochloride pyridin-2-ylamine trihydrochloride]	4.70 to 6.00	6.00 to 7.00
Nc1ncc(-c2cnn(C3CCNCC3)c2)cc1-c1cc2c(-c3nccs3)ccc(F)c2cn1 [Example 55, 3-(8-Fluoro-5-thiazol-2-ylisoquinolin-3-yl)-5-(1-piperidin-4-yl-1H-pyrazol-4-yl)-pyridin-2-ylamine trihydrochloride]	4.70 to 6.00	6.00 to 7.00
Nc1ncc(-c2cnn(C3CCNCC3)c2)cc1-c1cc2c(-c3cncs3)ccc(F)c2cn1 [Example 56, 3-(8-Fluoro-5-thiazol-5-ylisoquinolin-3-yl)-5-(1-piperidin-4-yl-1H-pyrazol-4-yl)-pyridin-2-ylamine trihydrochloride]	6.00 to 7.00	6.00 to 7.00
Nc1ncc(-c2cnn(C3CCN(C=O)CC3)c2)cc1-c1cc2c(Cl)ccc(F)c2cn1 [Example 57, 4-4-[6-Amino-5-(5-chloro-8-fluoroisoquinolin-3-yl)-pyridin-3-yl]-pyrazol-1-ylpiperidine-1-carbaldehyde]	4.70 to 6.00	6.00 to 7.00
CN1CCC(n2cc(-c3cnc(N)c(-c4cc5c(Cl)ccc(F)c5cn4)c3)cn2)CC1 [Example 58, 3-(5-Chloro-8-fluoroisoquinolin-3-yl)-5-[1-(1-methylpiperidin-4-yl)-1H-pyrazol-4-yl]-pyridin-2-ylamine]	6.00 to 7.00	6.00 to 7.00
CN1CCN(c2ncc(-c3cnc(N)c(-c4cc5c(Cl)ccc(F)c5cn4)c3)s2)CC1 [Example 60, 3-(5-Chloro-8-fluoroisoquinolin-3-yl)-5-[2-(4-methylpiperazin-1-yl)-thiazol-5-yl]-pyridin-2-ylamine trihydrochloride]	4.70 to 6.00	4.70 to 6.00
Nc1ncc(-c2cnc(N3CCOCC3)s2)cc1-c1cc2c(Cl)ccc(F)c2cn1 [Example 61, 3-(5-Chloro-8-fluoroisoquinolin-3-yl)-5-(2-morpholin-4-ylthiazol-5-yl)-pyridin-2-ylamine]	< 4.70	< 4.70
Nc1ncc(-c2cnn([C@@H]3CCNC3)c2)cc1-c1cc2c(Cl)ccc(F)c2cn1 [Example 62, 3-(5-Chloro-8-fluoroisoquinolin-3-yl)-5-((R)-1-pyrrolidin-3-yl-1H-pyrazol-4-yl)-pyridin-2-ylamine trihydrochloride]	6.00 to 7.00	6.00 to 7.00
Nc1ncc(-c2cnn([C@H]3CCNC3)c2)cc1-c1cc2c(Cl)ccc(F)c2cn1 [Example 63, 3-(5-Chloro-8-fluoroisoquinolin-3-yl)-5-((S)-1-pyrrolidin-3-yl-1H-pyrazol-4-yl)-pyridin-2-ylamine trihydrochloride]	6.00 to 7.00	6.00 to 7.00
CN1C2CCC1CC(n1cc(-c3cnc(N)c(-c4cc5c(Cl)ccc(F)c5cn4)c3)cn1)C2 (stereo not drawn) [Example 64, 3-(5-Chloro-8-fluoroisoquinolin-3-yl)-5-[1-(8-methyl-8-azabicyclo [3.2.1]-oct-3-yl)-1H-pyrazol-4-yl]-pyridin-2-ylamine]	6.00 to 7.00	6.00 to 7.00
Cn1cc(-c2cnc(N)c(-c3cc4c(Cl)ccc(F)c4cn3)c2)cn1 [Example 65, 3-(5-Chloro-8-fluoroisoquinolin-3-yl)-5-(1-methyl-1H-pyrazol-4-yl)-pyridin-2-ylamine bis-hydrochloride]	4.70 to 6.00	4.70 to 6.00
CC(C)n1cc(-c2cnc(N)c(-c3cc4c(Cl)ccc(F)c4cn3)c2)cn1 [Example 66, 3-(5-Chloro-8-fluoroisoquinolin-3-yl)-5-(1-isopropyl-1H-pyrazol-4-yl)-pyridin-2-ylamine bis-hydrochloride]	4.70 to 6.00	4.70 to 6.00
CN(C)C(=O)N1CCC(n2cc(-c3cnc(N)c(-c4cc5c(Cl)ccc(F)c5cn4)c3)cn2)CC1 [Example 67, 4-4-[6-Amino-5-(5-chloro-8-fluoroisoquinolin-3-yl)-pyridin-3-yl]-pyrazol-1-ylpiperidine-1-carboxylic acid dimethylamide bis-hydrochloride]	6.00 to 7.00	6.00 to 7.00
NC(=O)N1CCC(n2cc(-c3cnc(N)c(-c4cc5c(Cl)ccc(F)c5cn4)c3)cn2)CC1 [Example 68, 4-4-[6-Amino-5-(5-chloro-8-fluoroisoquinolin-3-yl)-pyridin-3-yl]-pyrazol-1-ylpiperidine-1-carboxamide bis-hydrochloride]	6.00 to 7.00	6.00 to 7.00
Nc1ncc(-c2cnn(C3CCN(CC(F)(F)F)CC3)c2)cc1-c1cc2c(Cl)ccc(F)c2cn1 [Example 69, 3-(5-Chloro-8-fluoroisoquinolin-3-yl)-5-1-[1-(2,2,2-trifluoroethyl)-piperidin-4-yl]-1H-pyrazol-4-yl-pyridin-2-ylamine bis-hydrochloride]	4.70 to 6.00	4.70 to 6.00
COCCN1CCC(n2cc(-c3cnc(N)c(-c4cc5c(Cl)ccc(F)c5cn4)c3)cn2)CC1 [Example 70, 3-(5-Chloro-8-fluoroisoquinolin-3-yl)-5-1-[1-(2-methoxyethyl)-piperidin-4-yl]-1H-pyrazol-4-yl-pyridin-2-ylamine]	4.70 to 6.00	6.00 to 7.00
CN(C)C(=O)[C@@H]1C[C@H](n2cc(-c3cnc(N)c(-c4cc5c(Cl)ccc(F)c5cn4)c3)cn2)CN1 [Example 71, (2S,4S)-4-{4-[6-Amino-5-(5-chloro-8-fluoroisoquinolin-3-yl)-pyridin-3-yl]-pyrazol-1-yl}-pyrrolidine-2-carboxylic acid dimethylamide]	6.00 to 7.00	≥ 7.00
Nc1ncc(-c2cnn([C@@H]3CN[C@H](C(=O)N4CCOCC4)C3)c2)cc1-c1cc2c(Cl)ccc(F)c2cn1 [Example 72, ((2S,4S)-4-{4-[6-Amino-5-(5-chloro-8-fluoroisoquinolin-3-yl)-pyridin-3-yl]-pyrazol-1-yl}-pyrrolidin-2-yl)-morpholin-4-ylmethanone]	6.00 to 7.00	≥ 7.00
Nc1ncc(-c2cnn([C@@H]3CN[C@H](C(=O)N4CCCC4)C3)c2)cc1-c1cc2c(Cl)ccc(F)c2cn1 [Example 73, ((2S,4S)-4-{4-[6-Amino-5-(5-chloro-8-fluoroisoquinolin-3-yl)-pyridin-3-yl]-pyrazol-1-yl}-pyrrolidin-2-yl)-pyrrolidin-1-ylmethanone]	6.00 to 7.00	6.00 to 7.00
COCCNC(=O)[C@@H]1C[C@H](n2cc(-c3cnc(N)c(-c4cc5c(Cl)ccc(F)c5cn4)c3)cn2)CN1 [Example 74, (2S,4S)-4-{4-[6-Amino-5-(5-chloro-8-fluoroisoquinolin-3-yl)-pyridin-3-yl]-pyrazol-1-yl}-pyrrolidine-2-carboxylic acid (2-methoxyethyl)-amide]	4.70 to 6.00	4.70 to 6.00
Nc1ncc(-c2ccsc2)cc1-c1cc2c(Cl)ccc(F)c2cn1 [Example 76, 3-(5-Chloro-8-fluoroisoquinolin-3-yl)-5-thiophen-3-ylpyridin-2-amine]	< 4.70	< 4.70
Nc1ncc(-c2ccccc2)cc1-c1cc2c(Cl)ccc(F)c2cn1 [Example 77, 3-(5-Chloro-8-fluoroisoquinolin-3-yl)-5-phenylpyridin-2-amine]	< 4.70	< 4.70
Nc1ncc(-c2cccnc2)cc1-c1cc2c(Cl)ccc(F)c2cn1 [Example 78, 5-(5-Chloro-8-fluoroisoquinolin-3-yl)-3,3′-bipyridin-6-amine]	4.70 to 6.00	4.70 to 6.00
Nc1ncc(-c2ccncc2)cc1-c1cc2c(Cl)ccc(F)c2cn1 [Example 79, 5-(5-Chloro-8-fluoroisoquinolin-3-yl)-3,4′-bipyridin-6-amine]	4.70 to 6.00	4.70 to 6.00
CC(C)(C)OC(=O)N1CC=C(c2cnc(N)c(-c3cc4c(Cl)ccc(F)c4cn3)c2)CC1 [Example 80]	4.70 to 6.00	4.70 to 6.00
Nc1ccc(-c2cnc(N)c(-c3cc4c(Cl)ccc(F)c4cn3)c2)cn1 [Example 81, 5-(5-Chloro-8-fluoroisoquinolin-3-yl)-3,3′-bipyridine-6,6′-diamine]	4.70 to 6.00	4.70 to 6.00
CC(=O)Nc1ccc(-c2cnc(N)c(-c3cc4c(Cl)ccc(F)c4cn3)c2)cc1 [Example 82, N-4-[6-Amino-5-(5-chloro-8-fluoroisoquinolin-3-yl)pyridin-3-yl]phenylacetamide]	< 4.70	4.70 to 6.00
